# Activity calls are given as the source filed them.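 The calls were made as follows: active = fitted half-maximal inhibitory concentration AC50 at most ten times the top concentration tested; inconclusive = flat fit with 30 to 70% inhibition, or unusable fit; inactive = AC50 above ten times the top concentration.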
# Molecular target: E3 ubiquitin-protein ligase TRIM62 (Homo sapiens) (UniProt Q9BVG3)
# Assay: inhibitors of TRIM62-driven CARD9 ubiquitylation, dose response, CARD9-TRIM62 disruptor project, biochemical, ubiquitin ELISA, AlphaLISA TUBE (AID 1259342);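 as to AC50: potency is for inhibitors that reduce CARD9 ubiquitylation signal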
# Conditions: TRIM62-mediated CARD9 ubiquitylation, AlphaLISA TUBE detection
# Sequence of E3 ubiquitin-protein ligase TRIM62 (Homo sapiens) (Q9BVG3 whole entry, looked up): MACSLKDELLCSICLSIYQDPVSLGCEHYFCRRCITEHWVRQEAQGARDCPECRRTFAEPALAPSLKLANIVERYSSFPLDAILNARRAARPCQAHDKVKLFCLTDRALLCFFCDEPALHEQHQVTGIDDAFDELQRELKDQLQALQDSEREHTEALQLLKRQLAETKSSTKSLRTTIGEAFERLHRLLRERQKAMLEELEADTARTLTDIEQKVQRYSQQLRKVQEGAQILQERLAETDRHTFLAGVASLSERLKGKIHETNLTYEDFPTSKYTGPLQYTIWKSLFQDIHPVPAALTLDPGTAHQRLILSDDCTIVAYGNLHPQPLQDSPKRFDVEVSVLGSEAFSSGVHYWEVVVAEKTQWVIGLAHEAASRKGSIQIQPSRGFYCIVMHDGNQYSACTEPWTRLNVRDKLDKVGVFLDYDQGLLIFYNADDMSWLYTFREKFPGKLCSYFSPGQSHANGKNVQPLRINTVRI
row,SMILES,AC50
1,O=C(CC1Nc2ccccc2OC1=O)Nc1ccc(Cl)cc1 (stereo not drawn),> 160 µM (inactive)
2,Cc1ccc(-c2cc(C(=O)Nc3ccccn3)c3ccccc3n2)o1,60.9 µM
3,NC(=O)C1(N2CCCCC2)CCN(c2ncc(NC(=O)c3ccccc3)cc2C(=O)O)CC1,6.61 µM
4,Nc1c2c(nc3ccccc13)CCN(Cc1ccccc1)C2,> 160 µM (inactive)
5,O=C(Nc1nccs1)c1cc(-c2ccco2)nc2ccccc12,15.7 µM
6,CC(C)C(CC(=O)NCc1ccco1)c1ccco1 (stereo not drawn),5.47 µM
7,Cc1cccc2nc(CSCc3ccco3)cn12,78.2 µM
8,Cc1ccc(C(=O)Nc2cnc(N3CCC(C(N)=O)(N4CCCCC4)CC3)c(C(=O)O)c2)cc1,9.21 µM
9,COc1ccc2nc(-c3ccco3)c(-c3ccco3)nc2c1,24.9 µM
10,O=C(COC(=O)CCC(=O)c1cccs1)NCc1ccco1,16.6 µM
11,N#Cc1c(N)oc(-c2ccco2)c1-c1ccco1,29.6 µM
12,O=C(NCCCN1CCOCC1)c1cc(-c2ccco2)nc2ccccc12,11.3 µM
13,Cc1cccc(Nc2nc(C(=O)Nc3cc(F)ccc3F)nc3ccccc23)c1,24.3 µM
14,NC(=O)C1(N2CCCCC2)CCN(c2ncc(NC(=O)c3ccc(Cl)cc3)cc2C(=O)O)CC1,18.2 µM
15,Cc1nc(C)c(C(=O)Nc2ncc([N+](=O)[O-])s2)o1,3.96 µM
16,CC1(C)Cc2ccccc2-c2nc(-c3ccccc3)oc(=O)c21,6.32 µM
17,O=C(O)CCc1ccc(-c2cccs2)n1NC(=O)c1ccco1,63.5 µM
18,NC(=O)C1(N2CCCCC2)CCN(c2ncc(NC(=O)c3cccc(Cl)c3)cc2C(=O)O)CC1,14.2 µM
19,C=CC(=O)N1CCCC2(CCN(CCN3CCCC3)C2=O)C1 (stereo not drawn),50.8 µM
20,Nc1cc2c(cc1O)CCCC2,49.4 µM
21,O=C(COC(=O)c1cc(-c2cccs2)nc2ccccc12)NCc1ccco1,26.2 µM

row,SMILES,AC50
1,Cc1ccc(N2NC(c3ccc(Br)cc3)=CCC2=O)cc1,> 160 µM (inactive)
2,COCCn1c(C)cc(-c2csc(N)n2)c1C,68.3 µM
3,O=C1CS/C(=N\N=C\c2ccco2)N1c1ccccc1,22.2 µM
4,Nc1ccccc1Sc1nccc(C(F)(F)F)n1,> 160 µM (inactive)
5,COc1ccc(-c2ccc(CCC(=O)O)o2)cc1,18.1 µM
6,C[C@H](CO)N1C[C@H](C)[C@@H](CN(C)CC2CCCCC2)OCCCC[C@H](C)Oc2ccc(NS(C)(=O)=O)cc2C1=O,> 160 µM (inactive)
7,O=C(Cn1c(=O)cc(C(=O)N2CCc3ccccc3C2)c2ccccc21)NCc1ccc2c(c1)OCO2,11.8 µM
8,CC1CCN(c2nc(-c3ccco3)c3c(c2C#N)CC(C)(C)OC3)CC1,17.6 µM
9,COc1ccc(S(=O)(=O)N2CCOCC2)cc1NC(=O)c1cccc(-n2cccc2)c1,3.62 µM
10,O=C1c2ccccc2-c2nc3ccccc3nc21,> 160 µM (inactive)
11,CC(=O)Nc1ccc2nc3c(=O)n(C)c(=O)n(C)c3nc2c1,48.2 µM
12,COc1cccc(NC(=O)CN(C)C(=O)c2cc3c(s2)CCC3)c1,8.47 µM
13,COc1cc(N)c(Cc2nccc3cc(OC)c(OC)cc23)cc1OC,79.5 µM
14,O=[N+]([O-])c1ccc2nn(Cc3ccccc3)cc2c1,> 160 µM (inactive)
15,CC(=O)c1cccc(OCC(=O)N(C)CC(=O)NCc2ccco2)c1,1.35 µM
16,O=C(Cc1cccs1)Nc1nnc(Cc2ccccc2)s1,41.2 µM
17,O=C(O)Cc1c[nH]c2cccc(O)c12,0.921 µM
18,CC(=O)c1sc2nc(-c3ccco3)ccc2c1N,24.5 µM
19,O=C(Nc1nncs1)c1cc(-c2ccco2)nc2ccccc12,28.8 µM
20,CCCC(=O)NCc1ccc2c(c1)cc(C)n2C,> 160 µM (inactive)

# Same assay, conditions: TRIM62-mediated CARD9 ubiquitylation, AlphaLISA TUBE detection; at 38 µM (top of the series)
row,SMILES,"activity change, negative = inhibition"
1,Cc1ccc(-c2nnc(-c3nc(Nc4nc5ccccc5s4)c4ccccc4n3)o2)cc1,inactive
2,CC(=O)c1ccc(NC(=O)c2noc3c2CCC3)cc1,inactive
3,Cc1ccc(-c2cc(C(=O)NCc3ccco3)c3ccccc3n2)o1,inactive
4,O=C(Nc1nc(-c2ccccn2)cs1)c1cccc(-n2cnnn2)c1,inactive
5,O=C(Nc1nc(-c2nc3ccccc3s2)cs1)c1ccco1,inactive

# Same assay, conditions: TRIM62-mediated CARD9 ubiquitylation, AlphaLISA TUBE detection; at 80 µM (top of the series)
row,SMILES,"activity change, negative = inhibition"
1,N#Cc1sc2nc(-c3ccccc3)cc(-c3ccco3)c2c1N,inactive
2,Cn1ncc2c(NNC(=O)c3cc(O)cc(O)c3)ncnc21,inactive
3,Cc1ccc(C2CC(=O)C3=C(C2)Nc2ccccc2NC3c2cccnc2)cc1 (stereo not drawn),inactive
4,O=C(Nc1ccc2oc(-c3ccncc3)nc2c1)c1ccc2c(c1)OCO2,inactive
5,Cc1[nH]c2ccc(Cl)cc2c(=O)c1CN1CCCC1,inactive
6,O=C(Nc1nnc(-c2ccco2)s1)c1ccccc1,inactive
7,CCN1CCOC(=O)C1CC(=O)Nc1cccc(C)c1 (stereo not drawn),inactive
8,O=C(O)c1cc(-c2ccco2)nc2ccccc12,inactive
9,CCCN1CCCn2nc(CNC(=O)[C@@H](N)Cc3ccc(O)cc3)cc2C1,inactive
10,Cc1cc(C)c2c(N)c(C(=O)Nc3cccc4ccccc34)sc2n1,inactive
11,O=C(CCc1nc(-c2ccccc2)no1)NCC1CNCCOC1 (stereo not drawn),inactive
12,COCC(=O)n1nc(-c2ccco2)nc1NCc1cccs1,inactive
13,O=C1CC2(CCN(C(=O)Nc3ccccc3)CC2)CN1Cc1ccc(Cl)cc1,inactive
14,Cc1cc(C(=O)Nc2nc3c(s2)CCc2ccccc2-3)no1,inactive
15,c1cn(CCc2noc(C3CCCC3)n2)c(-c2cc3n(n2)CCCNC3)n1,inactive
16,O=C(NCCc1ccccc1)c1cc2cccnc2n(Cc2ccccc2)c1=O,inactive
17,COCCCNC(=O)C1CCN(c2ccc(N3CCOCC3)nn2)CC1,inactive
18,O=C(COC(=O)c1cc(-c2ccco2)nc2ccccc12)NCc1ccc2c(c1)OCO2,inactive
19,CCOC(=O)c1ccc(-c2ccc(C3CC(=O)Nc4cc5c(cc43)OCCO5)o2)cc1 (stereo not drawn),inactive

row,SMILES,"activity change, negative = inhibition"
1,CN1C(=O)C(c2ccccc2[N+](=O)[O-])C(=O)c2ccccc21 (stereo not drawn),inactive
2,O=C1C=C(c2ccccc2)Nc2ccccc2N1,inactive
3,COc1ccc(Nc2nc(-c3nnc(-c4ccc(F)cc4)o3)nc3ccccc23)cc1Cl,inactive
4,O=C1c2ccccc2S(=O)(=O)N1Cc1cccc(S(=O)(=O)N2CCOCC2)c1,inactive
5,CCCc1cc(C(=O)N2CC[C@H]3CNC[C@H]32)n(C)n1,inactive
6,Cc1cncc(-c2ccc(S(N)(=O)=O)cc2F)c1,inactive
7,N#Cc1c(-c2ccco2)cc(-c2ccccn2)nc1N,inactive
8,COC[C@]1(O)CCN(C(=O)CCN(C)S(C)(=O)=O)CC1(C)C,inactive
9,Fc1ccc(CSc2nnc(-c3cccnc3)n2Cc2ccco2)cc1,inactive
10,CN(c1ccccc1C(=O)NCc1ccco1)S(C)(=O)=O,inactive
11,Cc1ccc2c(c1)C(N1CCCC1=O)CC(c1ccco1)N2 (stereo not drawn),inactive
12,CCOC(=O)C1CCN(C(=O)CN(Cc2ccccc2)S(C)(=O)=O)CC1,inactive
13,O=C(Nc1ccc2oc(-c3cccnc3)nc2c1)c1ccc2c(c1)OCCO2,inactive
14,N#Cc1c2ccc(OCC(=O)NCc3ccco3)cc2n2ccccc12,inactive
15,COc1ccc(-c2nc(SCC(=O)N3CCN(c4ccccc4OC)CC3)n[nH]2)cc1,inactive
16,NC(=O)C1(N2CCCCC2)CCN(c2ccc(NC(=O)c3ccccc3F)cc2C(=O)O)CC1,inactive
17,COc1ccc(N2Cc3cccc(C(=O)NC(C)CCc4ccco4)c3C2=O)cc1 (stereo not drawn),inactive
18,O=C(NCc1ccco1)c1ccc(S(=O)(=O)N2CCOCC2)cc1,inactive
19,C(=N\n1cnnc1SCc1ccccc1)/c1ccco1,inactive

row,SMILES,"activity change, negative = inhibition"
1,CCOc1ccccc1NC(=O)N1CCCC(c2nccn2CCOC)C1 (stereo not drawn),inactive
2,Cc1cc(C(=O)NCc2ccco2)on1,inactive
3,COCC(=O)N1CCCC2(CCN(CCN3CCCC3)C2=O)C1 (stereo not drawn),inactive
4,O=C(Nc1ccon1)c1cc2cccnc2n(Cc2ccccc2)c1=O,inactive
5,O=C(NCc1ccco1)[C@@H]1CSC2c3ccccc3C(=O)N21 (stereo partly drawn),inactive
6,O=C(CCn1cncn1)N1CCC(n2cc(-c3ccccn3)nn2)CC1,inactive
7,O=C(Nc1ccc2oc(-c3ccncc3)nc2c1)c1ccc2c(c1)OCCO2,inactive
8,N#CNc1nc(O)cc(=O)[nH]1,inactive
9,O=C(O)COCC(=O)NCc1ccco1,inactive
10,Clc1ccc2nc(CN3CCCCCC3)cn2c1,inactive
11,CCc1oc2ccccc2c1C(=O)CCN1CCCCC1,inactive
12,N#Cc1c2c(c(NCc3ccco3)n3c1nc1ccccc13)CCC2,inactive
13,Cc1ncnc(N2CCC(c3nccn3Cc3cccnc3)CC2)c1C,inactive
14,CCOc1ccc(CNc2nc(-c3nnc(-c4ccc(F)cc4)o3)nc3ccccc23)cc1,inactive
15,CCn1ccnc1C1CCN(C(=O)CCn2c(C)nc3ccccc32)CC1,inactive
16,O=[N+]([O-])c1ccc2cc[nH]c2c1,inactive
17,CCNc1ncc(C(=O)NCCc2nc3c(s2)CCCC3)cn1,inactive
18,CCc1nccn1CCC(=O)N1C[C@H](CO)C[C@H](CN2CCCC2)C1,inactive
19,Cc1scc(C(=O)NCc2ccco2)c1-c1ccccc1,inactive

# Reference: PubChem BioAssay AID1259342 (Broad Institute, 2017)
